According to BindingDB's records for doi:10.1016/j.bioorg.2017.01.007 (Panjab University, 2017):
pIC50: −log10 of the molar value.

The compounds below were run against T1, Tyrosine-protein phosphatase non-receptor type 1 (Homo sapiens, UniProt P18031) (assay: In Vitro PTP1B Inhibition Assay).
T1 sequence (P18031 whole entry): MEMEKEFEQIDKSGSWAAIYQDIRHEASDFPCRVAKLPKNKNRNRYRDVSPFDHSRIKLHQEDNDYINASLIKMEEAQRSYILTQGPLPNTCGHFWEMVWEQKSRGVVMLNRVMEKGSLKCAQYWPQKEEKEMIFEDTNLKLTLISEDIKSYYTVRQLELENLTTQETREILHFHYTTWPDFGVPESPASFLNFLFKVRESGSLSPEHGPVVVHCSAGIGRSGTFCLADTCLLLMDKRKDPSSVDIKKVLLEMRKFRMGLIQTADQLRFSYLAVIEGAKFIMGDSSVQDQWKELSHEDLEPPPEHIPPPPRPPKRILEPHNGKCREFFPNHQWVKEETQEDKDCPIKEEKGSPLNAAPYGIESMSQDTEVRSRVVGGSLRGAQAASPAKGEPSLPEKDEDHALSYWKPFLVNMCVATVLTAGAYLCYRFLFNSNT
Description: 10 mM stock solution (in assay buffer containing 1% DMSO) of the test compounds were prepared. Taking suitable aliquots from this stock solution, five different concentrations were made by dilutions. […] A 96 well microtiter plate was used for carrying out the assay using 10 mM DMSO as control. The reaction was carried out in 96 well, flatbottomed microtiter plates at 10 mM concentration using DMSO as control.
COc1cc(/C=C2\SC(=O)NC2=O)ccc1OS(=O)(=O)Cc1ccccc1 [(Z)-4-((2,4-dioxothiazolidin-5-ylidene)methyl)-2-methoxyphenyl phenylmethanesulfonate (20)] was tested, and the pIC50 was 4.22. For COc1cc(/C=C2\SC(=O)NC2=O)ccc1OS(=O)(=O)c1c(C)cc(C)cc1C [(Z)-4-((2,4-dioxothiazolidin-5-ylidene)methyl)-2-methoxyphenyl-2,4,6-trimethylbenzenesulphonate (15)], the pIC50 was 4.57. In the case of COc1cc(/C=C2\SC(=O)NC2=O)ccc1OS(=O)(=O)c1ccccc1[N+](=O)[O-] [(Z)-4-((2,4-dioxothiazolidin-5-ylidene)methyl)-2-methoxyphenyl-2-nitrobenzenesulfonate (19)], the pIC50 was 4.30. Compound COc1cc(/C=C2\SC(=O)NC2=O)ccc1OS(=O)(=O)c1ccc(Br)cc1 [(Z)-4-((2,4-dioxothiazolidin-5-ylidene)methyl)-2-methoxyphenyl-4-bromobenzenesulfonate (18)] has a pIC50 of 4.66. With COc1cc(/C=C2\SC(=O)NC2=O)ccc1OS(=O)(=O)c1ccc(Cl)cc1 [(Z)-4-((2,4-dioxothiazolidin-5-ylidene)methyl)-2-methoxyphenyl-4-chlorobenzenesulfonate (17)] the pIC50 was 4.60. Compound COc1ccc(S(=O)(=O)Oc2ccc(/C=C3\SC(=O)NC3=O)cc2OC)cc1 [(Z)-4-((2,4-dioxothiazolidin-5-ylidene)methyl)-2-methoxyphenyl-4-methoxybenzene sulfonate (14)] has a pIC50 of 4.55. COc1cc(/C=C2\SC(=O)NC2=O)ccc1OS(=O)(=O)c1ccc(C)cc1 [(Z)-4-((2,4-dioxothiazolidin-5-ylidene)methyl)-2-methoxyphenyl-4-methylbenzenesulfonate (12)] was tested, and the pIC50 was 4.72. Work on COc1cc(/C=C2\SC(=O)NC2=O)ccc1OS(=O)(=O)c1ccccc1 [(Z)-4-((2,4-dioxothiazolidin-5-ylidene)methyl)-2-methoxyphenylbenzenesulfonate (13)] yielded a pIC50 of 5.14. COc1cc(/C=C2\SC(=O)NC2=O)ccc1OS(C)(=O)=O [(Z)-4-((2,4-dioxothiazolidin-5-ylidene)methyl)-2-methoxyphenylmethane sulfonate (16)] showed a pIC50 of 5.06. For COc1cc(/C=C2\SC(=O)NC2=O)ccc1OS(=O)(=O)c1ccc2ccccc2c1 [(Z)-4-((2,4-dioxothiazolidin-5-ylidene)methyl)-2-methoxyphenylnaphthalene-2-sulfonate (21)], the pIC50 was 4.21.
